Laboratory results reported in US20230295234A1, “ANTIMICROBIAL PEPTIDOMIMETICS” (SPEXIS AG, priority 2020, published 2023).
Bridge positions count the residues as written; N and C are the ends. Square brackets hold non-standard residues; d marks the D form. Peptide text beside a SMILES is read from it. Pro(4R-NH2) = N[C@H]1CN[C@H](C(=O)O)C1; Gly(N-2-aminoethyl) = NCCNCC(=O)O; Pen = CC(C)(S)[C@H](N)C(=O)O; dDab = NCC[C@@H](N)C(=O)O; Nle = CCCC[C@H](N)C(=O)O; Dab = NCC[C@H](N)C(=O)O

Columns and labels:
[1] = tested on: human red blood cells (hRBC); test: Hemolysis of human red blood cells; format: cell-based; conditions: red cells of human, 1 h
Protocol: Lyophilized peptides were weighed on a Microbalance (Mettler MT5) and dissolved in sterile water to a final concentration of 1 mg/mL. Stock solutions were kept at +4° C., light protected. The peptides were tested for their hemolytic activity against human red blood cells (hRBC). Fresh hRBC were washed three times with phosphate buffered saline (PBS) and centrifuged for 5 min at 3000×g. Compounds (200 μg/mL) were incubated with 20% hRBC (v/v) for 1 h at 37° C. and shaking at 300 rpm. […] The samples were centrifuged, the supernatants were 8-fold diluted in PBS buffer and the optical densities (OD) were measured at 540 nm. […] Percent hemolysis was calculated as follows: (OD540peptide/OD540H2O)×100%.

[2] = tested on: Escherichia coli ATCC 25922; conditions: ATCC 25922
Protocol: (§1) Lyophilized peptides were weighed on a Microbalance (Mettler MT5) and dissolved in sterile water to a final concentration of 1 mg/mL. Stock solutions were kept at +4° C., light protected.
(§2) Colonies of the microorganisms were diluted in saline (0.85%, NaCl) and adjusted using a McFarland reader (bioMérieux SA, Marcy-l'Etoile, France) to 0.5 McFarland standard. Subsequently, the bacterial suspension was diluted in Mueller-Hinton II (MHII, cation adjusted) broth to give approximately 5×10^5 colony forming units (CFU/mL).
(§3) 10^6 colony forming units (CFU)/mL. Aliquots (90 μl) of inoculate were added to 10 μl of water+P-80 (Polysorbate 80, 0.002% final concentration) containing the peptide in serial two-fold dilutions at 10 fold final concentration. The following microorganisms were used to determine antibiotic selectivity of the peptides: Escherichia coli ATCC 25922, Escherichia coli MCR-1 Af 45 and Klebsiella pneumoniae SSI3010.

[3] = tested on: Escherichia coli MCR-1 Af 45; conditions: MCR-1 Af 45
Protocol: as §1, §2, §3

[4] = tested on: Klebsiella pneumoniae SSI3010; conditions: SSI3010
Protocol: as §1, §2, §3

Structure (SMILES) | Hemolysis at 0.2 g/L [1] [%] | Escherichia coli ATCC 25922 MIC [2] [µg/mL] | Escherichia coli MCR-1 Af 45 MIC [3] [µg/mL] | Klebsiella pneumoniae SSI3010 MIC [4] [µg/mL]
CCCC[C@H](NC(=O)[C@H](CCCNC(=N)N)NC(=O)[C@H](CCN)NC(=O)[C@@H]1CSSC(C)(C)[C@H](NC(=O)[C@H](Cc2ccc(O)cc2)NC(=O)[C@@H](NC(=O)[C@@H](NC(=O)[C@@H]2C[C@@H](N)CN2C(=O)[C@@H](NC(=O)[C@@H]2C[C@@H](N)CN2)C(C)C)[C@@H](C)CC)[C@@H](C)CC)C(=O)N[C@@H](CC(N)=O)C(=O)N[C@@H](CCCNC(=N)N)C(=O)N[C@@H](CCN)C(=O)N[C@@H]([C@@H](C)O)C(=O)N[C@H](CCN)C(=O)N[C@@H](CCCCN)C(=O)N1)C(=O)O [Example 8, Pro((4R)NH2)-Val-Pro((4R)NH2)-Ile-Ile-Tyr-Pen-Asn-Arg-Dab-Thr-^DDab-Lys-Cys-Dab-Arg-Nle] (H-[Pro(4R-NH2)]V[Pro(4R-NH2)]IIY[Pen]NR[Dab]T[dDab]KC[Dab]R[Nle]-OH; disulfide 7-14) | 0 | 0.0625 | 0.0625 | 0.125
CCCC[C@H](NC(=O)[C@H](CCCNC(=N)N)NC(=O)[C@H](CCN)NC(=O)[C@@H]1CSSC(C)(C)[C@H](NC(=O)[C@H](Cc2ccc(O)cc2)NC(=O)[C@@H](NC(=O)[C@@H](NC(=O)[C@@H]2C[C@@H](N)CN2C(=O)[C@@H](NC(=O)[C@@H]2C[C@@H](N)CN2)C(C)C)[C@@H](C)CC)[C@@H](C)O)C(=O)N[C@@H](CC(N)=O)C(=O)N[C@@H](CCCNC(=N)N)C(=O)N[C@@H](CCN)C(=O)N[C@@H]([C@@H](C)O)C(=O)N[C@H](CCN)C(=O)N[C@@H](CCCCN)C(=O)N1)C(=O)O [Example 9, Pro((4R)NH2)-Val-Pro((4R)NH2)-Ile-Thr-Tyr-Pen-Asn-Arg-Dab-Thr-^DDab-Lys-Cys-Dab-Arg-Nle] (H-[Pro(4R-NH2)]V[Pro(4R-NH2)]ITY[Pen]NR[Dab]T[dDab]KC[Dab]R[Nle]-OH; disulfide 7-14) | 0 | 0.0625 | 0.0625 | 0.125
CCCC[C@H](NC(=O)[C@H](CCCNC(=N)N)NC(=O)[C@H](CCN)NC(=O)[C@@H]1CSSC(C)(C)[C@H](NC(=O)[C@H](Cc2ccc(O)cc2)NC(=O)[C@@H](NC(=O)[C@@H](NC(=O)CN(CCN)C(=O)[C@@H](NC(=O)[C@@H]2C[C@@H](N)CN2)C(C)C)[C@@H](C)CC)[C@@H](C)CC)C(=O)N[C@@H](CC(N)=O)C(=O)N[C@@H](CCCNC(=N)N)C(=O)N[C@@H](CCN)C(=O)N[C@@H]([C@@H](C)O)C(=O)N[C@H](CCN)C(=O)N[C@@H](CCCCN)C(=O)N1)C(=O)O [Example 10, Pro((4R)NH2)-Val-Ndab-Ile-Ile-Tyr-Pen-Asn-Arg-Dab-Thr-^DDab-Lys-Cys-Dab-Arg-Nle] (H-[Pro(4R-NH2)]V[Gly(N-2-aminoethyl)]IIY[Pen]NR[Dab]T[dDab]KC[Dab]R[Nle]-OH; disulfide 7-14) | 0 | 0.125 | 0.125 | 0.25
CCCC[C@H](NC(=O)[C@H](CCCNC(=N)N)NC(=O)[C@H](CCN)NC(=O)[C@@H]1CSSC(C)(C)[C@H](NC(=O)[C@H](Cc2ccc(O)cc2)NC(=O)[C@@H](NC(=O)[C@@H](NC(=O)[C@@H]2C[C@@H](N)CN2C(=O)[C@@H](NC(=O)CNCCN)C(C)C)[C@@H](C)CC)[C@@H](C)CC)C(=O)N[C@@H](CC(N)=O)C(=O)N[C@@H](CCCNC(=N)N)C(=O)N[C@@H](CCN)C(=O)N[C@@H]([C@@H](C)O)C(=O)N[C@H](CCN)C(=O)N[C@@H](CCCCN)C(=O)N1)C(=O)O [Example 11, Ndab-Val-Pro((4R)NH2)-Ile-Ile-Tyr-Pen-Asn-Arg-Dab-Thr-^DDab-Lys-Cys-Dab-Arg-Nle] (H-[Gly(N-2-aminoethyl)]V[Pro(4R-NH2)]IIY[Pen]NR[Dab]T[dDab]KC[Dab]R[Nle]-OH; disulfide 7-14) | 0 | 0.0625 | ≤0.03125 | 0.125
